Here are results for twelve compounds from ChEMBL document CHEMBL1201862, “PubChem BioAssay data set” (2004).

The source made the active and inactive calls. Bounds are passed on as bounds.

The target in test [1] is Protein-tyrosine kinase 2-beta (Homo sapiens, UniProt Q14289).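 Further: potency of inhibitors of PYK2 kinase phosphorylation of poly-GT substrate.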
Test [2] deals with T1, NADPH oxidase 1 (Homo sapiens, UniProt Q9Y5S8).
T1 sequence (Q9Y5S8 whole entry): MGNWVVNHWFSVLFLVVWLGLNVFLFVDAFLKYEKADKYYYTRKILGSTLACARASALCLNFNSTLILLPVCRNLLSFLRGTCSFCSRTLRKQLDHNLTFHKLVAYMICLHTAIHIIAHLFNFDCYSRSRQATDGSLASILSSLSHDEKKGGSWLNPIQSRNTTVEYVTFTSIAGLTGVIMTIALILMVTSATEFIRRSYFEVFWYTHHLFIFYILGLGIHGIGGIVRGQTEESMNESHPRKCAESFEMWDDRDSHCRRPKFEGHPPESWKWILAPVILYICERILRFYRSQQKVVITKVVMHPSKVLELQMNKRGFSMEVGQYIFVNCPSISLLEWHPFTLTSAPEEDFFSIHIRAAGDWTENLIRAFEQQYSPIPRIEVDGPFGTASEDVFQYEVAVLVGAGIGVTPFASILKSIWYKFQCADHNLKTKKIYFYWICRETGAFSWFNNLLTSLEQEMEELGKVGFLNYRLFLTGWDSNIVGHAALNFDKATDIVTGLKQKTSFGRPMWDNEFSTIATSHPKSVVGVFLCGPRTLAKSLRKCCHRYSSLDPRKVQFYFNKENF
As to the kind of experiment: Late-stage luminescence-based cell-based dose response assay to identify inhibitors of NADPH oxidase 1 (NOX1): Synthesized analogs. The class given is functional.

In test [3] the target is T1, NADPH oxidase 1. As to the kind of experiment: Luminescence-based cell-based dose response assay to identify inhibitors of NADPH oxidase 1 (NOX1). The format is functional.
Test [4] deals with Lytic switch protein BZLF1 (Epstein-Barr virus (strain B95-8) (HHV-4) (Human herpesvirus 4), UniProt P03206). As to the kind of experiment: inhibition of BZLF1 ZTA DNA binding – biochemical, fluorescence polarization, Epstein-Barr virus, 1536-well, counter-screen for EBNA-1 inhibitor project, dose response (AID 2377).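 Further: fluorescence polarization of Cy5-labelled ZRE DNA probe bound by purified Zta.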 Further details: species or system human gammaherpesvirus 4. In general terms: Polarisation of emitted light reports the rotation of a fluorescent probe.
Lytic switch protein BZLF1, sequence (P03206 whole entry): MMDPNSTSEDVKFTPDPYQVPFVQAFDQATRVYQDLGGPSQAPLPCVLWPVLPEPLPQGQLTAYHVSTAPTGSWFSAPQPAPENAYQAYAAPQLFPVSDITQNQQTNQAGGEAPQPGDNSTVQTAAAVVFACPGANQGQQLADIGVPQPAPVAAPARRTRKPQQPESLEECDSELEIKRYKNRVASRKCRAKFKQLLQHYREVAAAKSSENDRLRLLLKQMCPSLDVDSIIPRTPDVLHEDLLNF

The target in test [5] is Epstein-Barr nuclear antigen 1 (Epstein-Barr virus (strain B95-8) (HHV-4) (Human herpesvirus 4), UniProt P03211). As to the kind of experiment: inhibition of EBV nuclear antigen 1 DNA binding – biochemical, fluorescence polarization, 1536-well, dose response (AID 2381).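 Further: fluorescence polarization of a Cy5 DNA probe bound by EBNA-1 protein.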 Also on record: species or system human gammaherpesvirus 4.
Epstein-Barr nuclear antigen 1, sequence (P03211 whole entry): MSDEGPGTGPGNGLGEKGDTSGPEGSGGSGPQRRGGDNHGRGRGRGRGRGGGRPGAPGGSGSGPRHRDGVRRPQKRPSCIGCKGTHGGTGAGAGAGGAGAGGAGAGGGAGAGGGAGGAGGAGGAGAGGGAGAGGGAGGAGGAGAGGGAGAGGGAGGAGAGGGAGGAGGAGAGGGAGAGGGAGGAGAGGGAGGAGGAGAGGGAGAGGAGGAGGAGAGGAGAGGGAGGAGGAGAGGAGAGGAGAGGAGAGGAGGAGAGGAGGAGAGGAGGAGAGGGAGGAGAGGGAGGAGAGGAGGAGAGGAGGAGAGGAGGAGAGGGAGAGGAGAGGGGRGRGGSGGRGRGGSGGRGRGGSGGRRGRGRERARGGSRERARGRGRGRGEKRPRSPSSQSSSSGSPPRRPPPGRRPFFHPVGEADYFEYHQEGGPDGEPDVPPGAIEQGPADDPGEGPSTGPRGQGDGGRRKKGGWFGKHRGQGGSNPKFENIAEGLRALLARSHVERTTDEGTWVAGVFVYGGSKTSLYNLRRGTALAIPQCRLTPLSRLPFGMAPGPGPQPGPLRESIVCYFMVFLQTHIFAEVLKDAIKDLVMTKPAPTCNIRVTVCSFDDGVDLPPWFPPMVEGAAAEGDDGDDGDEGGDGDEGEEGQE
For test [6], the target named is T2, Bcl-2-related protein A1 (Mus musculus, UniProt Q07440).
T2 sequence (Q07440 whole entry): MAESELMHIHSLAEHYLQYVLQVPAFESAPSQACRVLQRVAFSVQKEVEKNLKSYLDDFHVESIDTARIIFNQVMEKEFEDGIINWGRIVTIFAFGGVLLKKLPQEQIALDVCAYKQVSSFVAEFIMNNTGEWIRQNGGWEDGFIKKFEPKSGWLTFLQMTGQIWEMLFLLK
As to the kind of experiment: small-molecule antagonists of Bfl-1/BH3 interaction – biochemical, TR-FRET, mouse Bfl-1, confirmation (AID 621).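 Further: TR-FRET binding of GST-Bfl-1 to FITC-labelled Bid peptide via terbium antibody.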 On the technique in general: In TR-FRET formats the signal depends on donor and acceptor labels being close together.

Test [7] deals with T2, Bcl-2-related protein A1. As to the kind of experiment: Bfl-1 binding inhibitors, SAR follow-up, biochemical, fluorescence polarization (AID 1070).
Test [8] deals with Glyceraldehyde-3-phosphate dehydrogenase (Homo sapiens, UniProt P04406).
Glyceraldehyde-3-phosphate dehydrogenase, sequence (P04406 whole entry): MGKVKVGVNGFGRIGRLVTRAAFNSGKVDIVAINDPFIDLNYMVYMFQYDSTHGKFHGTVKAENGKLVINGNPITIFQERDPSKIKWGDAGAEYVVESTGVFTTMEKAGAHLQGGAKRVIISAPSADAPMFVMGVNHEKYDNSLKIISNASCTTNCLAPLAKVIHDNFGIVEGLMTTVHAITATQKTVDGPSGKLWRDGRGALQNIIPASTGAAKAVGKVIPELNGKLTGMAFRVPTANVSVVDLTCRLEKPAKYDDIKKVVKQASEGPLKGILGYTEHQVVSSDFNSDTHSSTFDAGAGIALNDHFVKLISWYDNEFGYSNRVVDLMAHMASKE
The target in test [9] is T3, Polyadenylate-binding protein 1 (Homo sapiens, UniProt P11940). As to the kind of experiment: MLLE binding blockers, Cy5 peptide tracer – biochemical, fluorescence polarization, Cy5-PAM2 peptide, secondary, miRNA deadenylation inhibitor project, dose response (AID 602260). The class given is functional. To be noted: read-out: IC50_Mean.
T3 sequence (P11940 whole entry): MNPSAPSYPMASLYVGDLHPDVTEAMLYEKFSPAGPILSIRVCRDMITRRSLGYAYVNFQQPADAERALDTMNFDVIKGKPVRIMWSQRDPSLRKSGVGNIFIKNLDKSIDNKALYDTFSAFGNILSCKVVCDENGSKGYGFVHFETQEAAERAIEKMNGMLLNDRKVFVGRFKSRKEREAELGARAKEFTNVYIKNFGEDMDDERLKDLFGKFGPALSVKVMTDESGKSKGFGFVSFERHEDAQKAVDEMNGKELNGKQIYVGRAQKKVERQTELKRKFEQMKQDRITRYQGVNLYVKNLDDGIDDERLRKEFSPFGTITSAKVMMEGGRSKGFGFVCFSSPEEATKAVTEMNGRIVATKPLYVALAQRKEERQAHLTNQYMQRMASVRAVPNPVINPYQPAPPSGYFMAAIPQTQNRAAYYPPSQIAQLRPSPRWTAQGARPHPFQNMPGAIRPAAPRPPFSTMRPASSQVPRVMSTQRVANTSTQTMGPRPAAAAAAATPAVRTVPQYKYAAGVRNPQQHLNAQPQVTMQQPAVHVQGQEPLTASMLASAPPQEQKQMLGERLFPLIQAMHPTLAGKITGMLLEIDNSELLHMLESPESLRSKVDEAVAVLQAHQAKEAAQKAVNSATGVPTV
Test [10] addresses Mucolipin-3 (Homo sapiens, UniProt Q8TDD5). The test is described as follows: Dose response cell-based high-throughput screening assay for agonists of the transient receptor potential channel ML3 (TRPML3). [Related pubchem assays: 1526, 1424, 1448 ]. The format is functional.
Test [11] concerns the target Ion channel NompC (Danio rerio, UniProt Q7T1G6). The test is described as follows: Fluorescence counterscreen assay for TRPML3 agonists: dose response cell-based high-throughput screening assay to identify agonists of the transient receptor potential channel N1 (TRPN1). [Related pubchem assays: 1526, 1424, 1448 ]. The class given is functional. In general terms: The purpose of a counterscreen is to sort out artefacts and off-target activity.

Test [12] deals with T3, Polyadenylate-binding protein 1. The test is described as follows: MLLE domain peptide-binding blockers, IC50 – biochemical, fluorescence polarization, FITC-PAM2 peptide, dose response (AID 602259). The class given is functional. To be noted: read-out: IC50_Mean.
Test [13] in a line: A High Throughput Confirmatory Assay used to Identify Novel Compounds that Inhibit Mycobacterium Tuberculosis in the absence of Glycerol. The class given is functional.
For test [14], the target named is Diphosphomevalonate decarboxylase (Streptococcus pneumoniae serotype 2 (strain D39 / NCTC 7466), UniProt Q9FD53). The test is described as follows: diphosphomevalonate decarboxylase inhibitor confirmation – biochemical, cuvette format, coupled NADH fluorescence (AID 1028). The format is functional.
Diphosphomevalonate decarboxylase, sequence (Q9FD53 whole entry): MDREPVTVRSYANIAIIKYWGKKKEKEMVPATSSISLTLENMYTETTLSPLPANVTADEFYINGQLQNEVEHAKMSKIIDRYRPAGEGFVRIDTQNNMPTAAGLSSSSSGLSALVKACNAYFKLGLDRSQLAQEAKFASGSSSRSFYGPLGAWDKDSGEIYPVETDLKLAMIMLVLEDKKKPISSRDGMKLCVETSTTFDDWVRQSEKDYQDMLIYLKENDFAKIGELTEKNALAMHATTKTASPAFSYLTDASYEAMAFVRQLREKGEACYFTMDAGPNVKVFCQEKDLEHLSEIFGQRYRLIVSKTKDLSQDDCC
Test [15] has as its target DNA dC->dU-editing enzyme APOBEC-3A (Homo sapiens, UniProt P31941). The test is described as follows: A3A deaminase inhibition for selectivity – biochemical, dose response (AID 504722). The format is functional.
Test [16] deals with FAD-linked sulfhydryl oxidase ALR (Homo sapiens, UniProt P55789). As to the kind of experiment: ALR-catalysed DTT oxidation blockers – biochemical, H2O2 detection, luminescence, cherry-pick, dose response (AID 493248).
FAD-linked sulfhydryl oxidase ALR, sequence (P55789 whole entry): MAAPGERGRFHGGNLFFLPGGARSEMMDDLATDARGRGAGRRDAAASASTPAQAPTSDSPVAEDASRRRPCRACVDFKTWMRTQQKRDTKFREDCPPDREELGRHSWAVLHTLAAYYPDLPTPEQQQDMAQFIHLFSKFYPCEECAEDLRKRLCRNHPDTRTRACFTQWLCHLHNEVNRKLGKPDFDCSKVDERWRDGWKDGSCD
The target of test [17] is T4, Phosphomannomutase 2 (Homo sapiens, UniProt O15305).
T4 sequence (O15305 whole entry): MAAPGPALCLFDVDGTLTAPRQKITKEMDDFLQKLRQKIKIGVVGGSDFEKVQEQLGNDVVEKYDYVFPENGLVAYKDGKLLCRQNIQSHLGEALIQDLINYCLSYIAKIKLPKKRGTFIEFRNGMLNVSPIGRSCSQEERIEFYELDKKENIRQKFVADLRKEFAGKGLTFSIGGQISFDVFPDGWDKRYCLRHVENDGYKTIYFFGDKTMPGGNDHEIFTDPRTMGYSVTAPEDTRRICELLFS
As to the kind of experiment: Counter screen SAR assay for PMM2 inhibitors via a fluorescence intensity assay. [Related pubchem assays (depositor defined):AID1545, AID1574].

Test [18] has as its target T5, Mannose-6-phosphate isomerase (Homo sapiens, UniProt P34949).
T5 sequence (P34949 whole entry): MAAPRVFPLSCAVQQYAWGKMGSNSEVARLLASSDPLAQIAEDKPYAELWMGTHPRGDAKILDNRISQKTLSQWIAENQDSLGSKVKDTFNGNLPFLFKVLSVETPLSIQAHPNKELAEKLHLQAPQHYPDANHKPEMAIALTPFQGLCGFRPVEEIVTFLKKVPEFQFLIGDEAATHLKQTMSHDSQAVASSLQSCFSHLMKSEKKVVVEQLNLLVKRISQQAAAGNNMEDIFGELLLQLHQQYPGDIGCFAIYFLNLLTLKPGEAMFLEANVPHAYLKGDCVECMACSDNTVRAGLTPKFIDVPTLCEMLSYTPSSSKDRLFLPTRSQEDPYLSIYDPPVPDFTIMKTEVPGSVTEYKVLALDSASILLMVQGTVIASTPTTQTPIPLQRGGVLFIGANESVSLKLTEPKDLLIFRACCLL
As to the kind of experiment: phosphomannose isomerase inhibition – biochemical, fluorescence intensity, confirmation (AID 1535).

Test [19] deals with DNA dC->dU-editing enzyme APOBEC-3G (Homo sapiens, UniProt Q9HC16). As to the kind of experiment: Dose Response confirmation of small molecule APOBEC3G DNA Deaminase Inhibitors via a fluorescence-based single-stranded DNA deaminase assay. [Related pubchem assays (depositor defined):AID493012, AID493028]. The class given is functional.
DNA dC->dU-editing enzyme APOBEC-3G, sequence (Q9HC16 whole entry): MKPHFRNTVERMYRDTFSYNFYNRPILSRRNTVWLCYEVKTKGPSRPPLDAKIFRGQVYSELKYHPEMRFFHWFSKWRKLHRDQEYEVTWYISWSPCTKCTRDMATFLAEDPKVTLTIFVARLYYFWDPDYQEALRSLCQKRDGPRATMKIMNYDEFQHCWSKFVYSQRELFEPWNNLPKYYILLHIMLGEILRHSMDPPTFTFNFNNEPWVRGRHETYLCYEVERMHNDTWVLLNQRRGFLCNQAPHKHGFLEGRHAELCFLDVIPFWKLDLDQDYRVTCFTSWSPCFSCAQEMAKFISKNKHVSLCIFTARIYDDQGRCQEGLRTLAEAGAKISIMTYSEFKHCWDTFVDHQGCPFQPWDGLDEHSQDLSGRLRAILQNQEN
The target of test [20] is T5, Mannose-6-phosphate isomerase. As to the kind of experiment: MPI enzyme activity inhibition – biochemical, fluorescence intensity, coupled assay, primary screen (AID 1209).
For test [21], the target named is T1, NADPH oxidase 1. The class given is functional, cell-based.
Test [22] addresses T6, Carboxy-terminal domain RNA polymerase II polypeptide A small phosphatase 1 (Homo sapiens, UniProt Q9GZU7).
T6 sequence (Q9GZU7 whole entry): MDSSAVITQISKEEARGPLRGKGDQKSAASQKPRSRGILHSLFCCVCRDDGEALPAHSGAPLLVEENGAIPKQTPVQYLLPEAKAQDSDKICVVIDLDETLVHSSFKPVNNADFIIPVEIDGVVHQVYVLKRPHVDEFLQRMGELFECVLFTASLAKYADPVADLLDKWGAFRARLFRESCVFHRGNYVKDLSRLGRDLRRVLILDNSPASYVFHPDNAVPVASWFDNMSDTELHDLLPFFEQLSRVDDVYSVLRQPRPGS
The test is described as follows: CTDSP1 inhibitors, concentration-response, biochemical, absorbance readout, ultra-high-throughput screen actives (AID 540297). The class given is functional.

For test [23], the target named is Mitochondrial peptide methionine sulfoxide reductase (Bos taurus, UniProt P54149). The class given is functional.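 Further: absorbance read-out, biochemical high-throughput dose-response screen for MsrA inhibitors, confirmatory; recombinant bovine MsrA coupled to E. coli TrxB with NADPH and selenocystamine; potency is for inhibitors of MsrA activity on DMSO substrate.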
Mitochondrial peptide methionine sulfoxide reductase, sequence (P54149 whole entry): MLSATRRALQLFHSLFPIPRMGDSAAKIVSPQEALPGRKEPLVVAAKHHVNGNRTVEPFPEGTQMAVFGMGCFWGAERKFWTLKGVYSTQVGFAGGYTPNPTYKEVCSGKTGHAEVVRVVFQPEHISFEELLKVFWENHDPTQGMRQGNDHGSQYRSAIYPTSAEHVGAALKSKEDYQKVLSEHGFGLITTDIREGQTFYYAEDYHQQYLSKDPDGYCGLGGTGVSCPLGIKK
For test [24], the target named is Aryl hydrocarbon receptor (Homo sapiens, UniProt P35869). The test is described as follows: Luminescence-based cell-based high throughput dose response assay for activators of the Aryl Hydrocarbon Receptor (AHR). [Related pubchem assays: 2796 (Primary screen (AHR activators in singlicate)), 2845 (Confirmation screen (AHR activators in triplicate)), 434939 (Counterscreen (PXR activators in triplicate)), 2804 (Summary (AHR activators))]. The format is ADME.
Aryl hydrocarbon receptor, sequence (P35869 whole entry): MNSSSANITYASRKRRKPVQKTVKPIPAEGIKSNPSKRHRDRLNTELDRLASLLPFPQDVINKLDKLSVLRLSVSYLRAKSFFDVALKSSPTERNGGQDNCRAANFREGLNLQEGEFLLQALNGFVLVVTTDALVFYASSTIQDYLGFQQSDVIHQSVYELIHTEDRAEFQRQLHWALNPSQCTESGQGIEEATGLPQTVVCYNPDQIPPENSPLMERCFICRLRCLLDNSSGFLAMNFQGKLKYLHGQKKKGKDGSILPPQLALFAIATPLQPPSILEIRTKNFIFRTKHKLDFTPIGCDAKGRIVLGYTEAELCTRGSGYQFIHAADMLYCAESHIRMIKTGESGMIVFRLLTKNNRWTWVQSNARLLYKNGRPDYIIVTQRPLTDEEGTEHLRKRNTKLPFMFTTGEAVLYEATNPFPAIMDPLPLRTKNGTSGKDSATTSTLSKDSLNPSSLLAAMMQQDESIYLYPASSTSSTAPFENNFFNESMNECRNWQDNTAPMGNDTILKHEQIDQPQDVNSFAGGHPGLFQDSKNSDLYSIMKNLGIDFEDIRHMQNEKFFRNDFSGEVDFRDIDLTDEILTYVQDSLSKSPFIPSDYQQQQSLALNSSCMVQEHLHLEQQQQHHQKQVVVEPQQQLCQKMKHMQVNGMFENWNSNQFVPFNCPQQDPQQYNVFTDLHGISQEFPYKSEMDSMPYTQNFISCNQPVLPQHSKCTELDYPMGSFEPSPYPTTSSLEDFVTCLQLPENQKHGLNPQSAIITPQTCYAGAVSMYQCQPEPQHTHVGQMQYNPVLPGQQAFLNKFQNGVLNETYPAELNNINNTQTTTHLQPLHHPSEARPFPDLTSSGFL

Test [25] in a line: Trypanosoma cruzi growth suppression in host cells – NIH3T3 host cells, beta-gal luminescence, confirmation (AID 2044).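 Further: intracellular parasites grown in NIH/3T3 mouse fibroblasts as host cells; luminescent beta-galactosidase reporter signal from transgenic T. cruzi replicating inside host cells; inhibitors lower the luminescence signal.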 The class given is functional, cell-based.
Test [26] in a line: NIH3T3 cell viability loss – ATP luminescence, mouse fibroblasts, counter-screen, dose response (AID 2010).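 Further: cells exposed to compound for about 90 hours before reading.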 The format is functional, cell-based.
Test [27] can be described thus: cells.
The test system of test [28] is P388. As to the kind of experiment: cells. The class given is functional. To be noted: Mus musculus, P388.
Test [29] can be described thus: Luminescence-based dose response cell-based high throughput screening assay for cytotoxic compounds using the IEC-6 intestinal epithelial cell line. [Related pubchem assays: 1858 (Summary AID.), 1825 (Counterscreen.), 1907 (Confirmation screen.)]. The class given is functional.
Test [30] concerns SN12K1. The test is described as follows: cells. To be noted: Homo sapiens. The format is functional.
Test [31] addresses T5, Mannose-6-phosphate isomerase. The test is described as follows: MPI inhibition at elevated mannose 6-phosphate – biochemical, fluorescence intensity, high mannose 6-phosphate, primary screen (AID 1220).
A short description of test [32]: viability loss in THP-1 monocytes – THP-1 cells, cytotoxicity control for Vif-APOBEC3G degradation inhibitor project, dose response (AID 1117359). To be noted: THP-1. The format is functional.
The test system of test [33] is P388/ADR. As to the kind of experiment: cells. The class given is functional. To be noted: Mus musculus, P388/ADR.

Mucolipin-3, sequence (Q8TDD5 whole entry): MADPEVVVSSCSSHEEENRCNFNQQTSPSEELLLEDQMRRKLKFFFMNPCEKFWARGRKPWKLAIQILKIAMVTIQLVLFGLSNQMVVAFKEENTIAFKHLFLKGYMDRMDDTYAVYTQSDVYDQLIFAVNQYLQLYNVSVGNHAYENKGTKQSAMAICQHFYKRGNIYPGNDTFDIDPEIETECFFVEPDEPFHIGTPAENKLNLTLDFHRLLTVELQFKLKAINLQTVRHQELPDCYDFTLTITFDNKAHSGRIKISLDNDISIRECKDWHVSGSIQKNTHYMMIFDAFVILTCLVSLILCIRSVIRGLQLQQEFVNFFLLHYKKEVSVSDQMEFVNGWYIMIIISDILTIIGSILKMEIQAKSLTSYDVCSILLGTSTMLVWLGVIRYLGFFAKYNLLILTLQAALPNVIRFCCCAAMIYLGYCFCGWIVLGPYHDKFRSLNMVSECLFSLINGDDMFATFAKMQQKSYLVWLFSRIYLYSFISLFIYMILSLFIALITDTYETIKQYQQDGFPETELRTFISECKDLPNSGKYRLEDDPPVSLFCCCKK
DNA dC->dU-editing enzyme APOBEC-3A, sequence (P31941 whole entry): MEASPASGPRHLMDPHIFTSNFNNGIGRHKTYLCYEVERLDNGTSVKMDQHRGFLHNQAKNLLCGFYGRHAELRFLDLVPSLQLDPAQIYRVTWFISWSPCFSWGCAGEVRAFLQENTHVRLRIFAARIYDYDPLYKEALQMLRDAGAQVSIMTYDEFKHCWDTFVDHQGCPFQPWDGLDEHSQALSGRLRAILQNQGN

Regarding `N#Cc1cnn2c1nc(N1CCOCC1)c1ccccc12`, the IC50 in test [1] was > 69.5 µM (not active).
On to `O=S1(=O)c2ccccc2Nc2ccccc21`, for which the IC50 in test [2] was > 50 µM (not active); in test [3], 6.6 µM (active).
For `Cc1ccccc1OCCn1cc(/C=C(\C#N)C(=O)NCc2ccco2)c2ccccc21`, the IC50 in [4] was > 111 µM (not active); in test [5], 39.9 µM (not active).
On to `O=C1C(Cl)=C(N2CCOCC2)C(=O)N1c1ccc(Cl)nc1`, for which the figures for the IC50 in test [6], in test [7] and in [8] were 15.1 µM (active), 12.6 µM (active) and > 100 µM (not active), respectively.
A word on the EC50: it is the concentration giving half of the maximal effect. Consider `O=C1C(Cl)=C(N2CCN(Cc3ccccc3)CC2)C(=O)N1Cc1ccccc1`, for which the IC50 in test [9] and in test [12] was > 66 µM (inactive) in each case. Besides, the EC50 in test [10] is 5.29 µM (active); in test [11], > 29.9 µM (not active).
Turning to `CCc1nc2ccccc2c(C(=O)Nc2cc(C)ccc2C)c1C`, the IC50 in [13] is > 100 µM (active).
On to `CN(C)C(=O)c1ccc(-n2sc3ccccc3c2=O)cc1`, for which the IC50 in test [14] was 21.9 µM (active).
The AC50 is the midpoint of the concentration-response curve, whichever way the signal moves. `COc1ccc(-c2n[nH]c(=S)[nH]2)cc1OC`: the IC50 in test [15] is > 100 µM (inactive); in test [17], > 100 µM (inactive); in [18], 29 µM (active); in test [19], 3.45 µM (active); in test [20], 8.55 µM (active). Further, the AC50 in test [16] is 0.011 µM (active).
As to `O=[N+]([O-])c1cccc(-c2nc(-c3ccccc3)c(-c3ccccc3)[nH]2)c1`, in test [21], the IC50 is given as > 17 µM (not active).
For `O=C(N/N=C/c1ccco1)c1ccc(C(=O)N/N=C/c2ccco2)o1`, the IC50 in test [22] is 4.92 µM (active); in [23], 114 µM (inactive). Further, the EC50 in test [24] is 5.21 µM (active).
With `CCCCc1c(CCC)c(=N)c2ccccc2n1C`, the EC50 in test [25] is < 0.1 µM (active); in test [26], > 60 µM (inconclusive); in test [27], 0.017 µM (active).
One may read the GI50 as the concentration giving 50% growth inhibition. What is called CC50 is the concentration giving 50% cytotoxicity. Turning to `COC1=C(N)C(=O)c2nc(-c3nc(C(=O)O)c(C)c(-c4ccc(OC)c(OC)c4O)c3N)ccc2C1=O` [STREPTONIGRIN], the values for the GI50 in test [28], in test [30] and in [33] were 0.0352 µM (active), < 0.01 µM (active) and 0.0287 µM (active), respectively. The IC50 was 0.0094 µM (active) in [29] and > 50 µM (not active) in [31]. Besides, in test [32], the CC50 is 2.96 µM (active).
